According to patent US20220119446A1, “BIOMARKERS AND TREATMENT OF NEURONAL INJURY AND NEURODEGENERATION” (Board of Supervisons of Louisiana State University and …, priority 2018, published 2022):
Entries after “also recorded” stand apart in the source; their conditions may differ.

Key:
Assay type in all cases: cell-based, human
[1] = tested on: Wnt5a/FZD5; test: Immunocytochemistry of Wnt5a/FZD5 colocalization and vesicles in hpRPE cells; conditions: for number of Wnt5a/FZD5 colocalized vesicles per field: hpRPE, UOS 1600 μM H2O2, 2 hours, +/− 50 ng/ml Wnt5a, no Pitstop2
Method: To ascertain localization and interaction between FZD5 and Wnt5a we incubated hpRPE undergoing UOS with Wnt5a+/−NPD1 or other lipid mediators.
(§1) Immunostaining can be performed in 8-well slide chambers and the Hoechst staining in 24-well plates. […] Briefly, cells can be fixed using 4% paraformaldehyde in PBS 1× for 20 min at room temperature or overnight at 4° C. After three washes with PBS, cells can be permeabilized using 0.1% Triton™ X-100 for five minutes and blocked using 10% normal serum and 1% BSA for one hour. […] Hoechst staining can be performed using same protocol of fixation. In one embodiment, permeabilization is done using methanol for 20 min at room temperature. […] Dying cells can be identified by size (0 to 50 pixels), intensity threshold, and circularity. The ratio of hyperpyknotic cells over the total can be calculated for nine randomly chosen fields per sample obtained from three independent wells per experiment. Each experiment can be repeated at least three times to confirm the findings.
In an embodiment involving early stages of apoptosis, the total number of cells per field is assessed and counted to ensure unbiased observations. […] Settings can be adjusted in the conditions that show higher intensity and can be used throughout the remaining samples. In an embodiment, Pearson's colocalization coefficient (PCC) is obtained using FV1200 analysis software for every field in each experiment, and the mean and SEM are depicted in FIGS. 7-11.
Immunostaining was performed in 8-well slide chambers and the Hoechst staining in 24 well plates. […] Briefly, cells were fixed using 4% paraformaldehyde in PBS 1× for 20 min at room temperature or overnight at 4° C. After three washes with PBS, cells were permeabilized using 0.1% Triton™ X-100 for five minutes and blocked using 10% normal serum and 1% BSA for one hour. […] Hoechst staining was performed using same protocol of fixation, but permeabilization was done using methanol for 20 min at room temperature. […] Dying cells were identified by size (0 to 50 pixels), intensity threshold and circularity. The ratio of hyperpyknotic cells over the total was calculated for nine randomly chosen fields per sample obtained from three independent wells per experiment. Each experiment was repeated at least three times to confirm the findings. In the experiments involving early stages of apoptosis, we assessed the total number of cells per field and counted them to ensure unbiased observations. […] Pearson's colocalization coefficient (PCC) was obtained using FV1200 analysis software for every field in each experiment, and the mean and SEM are depicted in Figures S1-S5. […] IMARIS software analysis was performed building a colocalization channel using the Costes thresholding, and the colocalized elements were analyzed using the spots function using the settings different spots sites, background subtraction and local contrast. The output obtained consisted on a collection of sizes (one per element in each picture) or the mean of the intensity in each spot.

[2] = tested on: ARPE-19 cells and hpRPE; test: Apoptosis by Hoechst staining in RPE cells under UOS
Method: ARPE-19 cells, can be plated and grown in DMEM/F-12 containing 10% FBS and 1× penicillin/streptomycin at 37° C., 5% CO2, 99% relative humidity for 24 h. […] 15-LOX-1 deficient cells can be maintained in the same medium as ARPE-19 with the addition of 500 μg/mL Geneticin (Life Technologies Corporation, Carlsbad, Calif.). Transfection can be performed in all cases using Lipofectamine 2000 (Life Technologies Corporation, Carlsbad, Calif.) following the manufacturer's recommendations. […] Experiments with transfection efficiency that yielded less than 80% can be discarded. For siRNA, we used 6 μl of Lipofectamine 2000 per 50 pmol of siRNA per mL of incubation medium, and, for plasmids, we used 6 μl of Lipofectamine 2000 per 2 μg of plasmid per mL of incubation medium. Cells can be incubated for 5 hours at 37° C., 5% CO2 and 99% relative humidity. […] When siRNA/plasmid co-transfection is required, siRNA and plasmid-carrying transfection mixes can be prepared separately and added one after the other in the same well. Oxidative stress treatments can be performed using 600 (ARPE-19) or 1600 (hRPE) μM H2O2, along with 10 ng/mL TNFα, for the required time indicated in each experiment. The treatment we used employed the low serum (0.5% serum) without hFGF. Treatment to induce uncompensated oxidative stress (UOS) can be performed after 8 hours of low-serum medium incubation unless specifically noted. Wnt5a, Wnt3a or NPD1 can be added immediately before induction of UOS. In the secretion experiments, Pitstop 2 can be added to the medium 2 hours before harvesting.
as §1
ARPE-19 cells, were plated and grown in DMEM/F-12 containing 10% FBS and 1× penicillin/streptomycin at 37° C., 5% CO2, 99% relative humidity for 24 h. […] 15-LOX-1 deficient cells were maintained in the same medium as ARPE-19 with the addition of 500 μg/mL Geneticin (Life Technologies Corporation). Transfection was performed in all cases using Lipofectamine 2000 (Life Technologies Corporation) following the manufacturer's recommendations. […] Experiments with transfection efficiency that yielded less than 80% were discarded. For siRNA, we used 6 μl of Lipofectamine 2000 per 50 pmol of siRNA per mL of incubation medium, and, for plasmids, we used 6 μl of Lipofectamine 2000 per 2 μg of plasmid per mL of incubation medium. Cells were incubated for 5 hours at 37° C., 5% CO2 and 99% relative humidity. […] When siRNA/plasmid co-transfection was required, siRNA and plasmid-carrying transfection mixes were prepared separately and added one after the other in the same well. […] The treatment we used employed the low serum (0.5% serum) without hFGF. Treatment to induce uncompensated oxidative stress (UOS) was performed after 8 hours of low-serum medium incubation unless specifically noted. Wnt5a, Wnt3a or NPD1 was added immediately before induction of UOS.

[3] = tested on: Wnt5a; test: Western blot of secreted (sWnt5a) and cellular (cWnt5a) Wnt5a in RPE cells under UOS
Method: To monitor transcription, translation, and secretion of Wnt5a, we performed western blot assays using cellular lysates and medium from hpRPE undergoing UOS+/−NPD1 at different time points. Medium was precipitated using Methanol/Chloroform to bring down all secreted Wnt5a.
The pellet can be re-suspended and denatured in 100 μl of 2× Laemmli sample buffer (Bio-Rad Laboratories, Hercules, Calif.) at 95° C. for 5 min. MCAo brain tissue and cell samples can be homogenized using RIPA (Thermo Fisher Scientific, Waltham, Mass.) buffer supplemented with protease and phosphatase inhibitor cocktails (Millipore Sigma, Burlington, Mass.). In embodiments, the amount of 30 μg of total protein is loaded in NuPAGE® Novex® 4-12% Bis-Tris precast gels (Life Technologies Corporation, Carlsbad, Calif.) and run at constant 120V for about 1 hour and 20 min. Proteins can be transferred to μm Nitrocellulose membrane using Bio-Rad Trans-Blot® Turbo™ System (Bio-Rad Laboratories, Hercules, Calif.). ECL™ Plex Fluorescent Rainbow Markers (GE Healthcare, Chicago, Ill.) can be used as the ladder for protein's molecular weight. Membranes can be blocked using 5% non-fat dry milk (Bio-Rad Laboratories, Hercules, Calif.) in TBS with 1% Tween® 20 (TBST-10×) (Croda International, Snaith, United Kingdom) for 1 hour and incubated overnight with primary antibodies. Anti-mouse or anti-rabbit secondary antibodies conjugated with Cy3 or Cy5 can be used to visualize the protein of interest. Immunoblots can be documented using LAS 4000 imaging system (GE Healthcare Life Sciences, Marlborough, Mass.). A time course exposition can be produced in each case to prevent quantification of saturated images. In embodiments, densitometry data are obtained using ImageQuant™ TL software (GE Healthcare Life Sciences, Marlborough, Mass.).
The pellet was re-suspended and denatured in 100 μl of 2× Laemmli sample buffer (Bio-Rad Laboratories) at 95° C. for 5 min. MCAo brain tissue and cell samples were homogenized using RIPA (Thermo Fisher Scientific) buffer supplemented with protease and phosphatase inhibitor cocktails (Sigma). The amount of 30 μg of total protein was loaded in NuPAGE® Novex® 4-12% Bis-Tris precast gels (Life Technologies Corporation) or Mini-PROTEAN TGX Stain free gels 4-15% and ran at constant 120V for 1 hour and 20 min or 250 V for 40 min respectively. Proteins were transferred to μm Nitrocellulose or LF-PVDF membrane using Bio-Rad Trans-Blot® Turbo™ System (Bio-Rad Laboratories). ECL™ Plex Fluorescent Rainbow Markers (GE Healthcare) were used as the ladder for protein's molecular weight. […] A time course exposition was produced in each case to prevent quantification of saturated images. […]

[4] = tested on: NF-κB/p65; test: NF-κB/p65 luciferase reporter assay in hpRPE cells; conditions: hpRPE under UOS in the presence of Wnt5a 50 ng/ml; NPD1 100 or 200 nM; Pitstop2 25 μM
Method: We asked if Wnt5a activates inflammatory signaling to enhance apoptosis mediated by UOS by assessing COX-2 promoter activation (FIG. 10). […] To compare Wnt5a effects with other cytokines that enhance COX-2 expression, Interleukin-1β (IL-1β) activity was measured. […] To determine if Wnt5a activates NF-κB, hpRPE were transfected with a construct that encompassed three p65 high-affinity binding sites in tandem, driving the expression of the luciferase reporter gene (FIG. 1G). […] To assess whether or not FDZ5 and ROR2 were involved in NF-κB activation by Wnt5a, cells were co-transfected with siRNAs targeting the two receptors (FIG. 11).
(§2) Except TOP/FOP flash, the Luciferase activity can be standardized using a construct expressing GFP constitutively under CMV virus promoter. To assess luciferase activity, cell lysates can be obtained using Passive Lysis Buffer (Promega, Madison, Wis.) and mixed with a luciferase assay reagent (Promegam Madison, Wis.). Chemiluminescence produced by luciferase and fluorescence from GFP can be detected using Appliscan 2.3. Data can be analyzed using SkanIt 2.3 (Thermo Fisher Scientific, Waltham, Mass.).
Except TOP/FOP flash, the Luciferase activity was standardized using a construct expressing GFP constitutively under CMV virus promoter. To assess luciferase activity, cell lysates were obtained using Passive Lysis Buffer (Promega) and mixed with a luciferase assay reagent (Promega). Chemiluminescence produced by luciferase and fluorescence from GFP was detected using Appliscan 2.3. Data were analyzed using SkanIt 2.3 (Thermo Fisher Scientific).

[5] = tested on: COX-2 promoter; test: COX-2 promoter luciferase reporter assay; conditions: ARPE-19 cells; 50 ng/ml Wnt5a or 20 ng/ml IL1-β
Description: as §2
A, Design of luciferase reporter assay performed with COX-2 promoter construct. UOS was induced by the addition of 10 ng/ml TNFα and 600 μM H2O2 in ARPE-19 cells. The concentrations of Wnt5a used was 50 ng/ml. Cells were co-transfected with the constructs driving the expression of luciferase and a plasmid that constitutively expressed green fluorescent protein for standardization. Luciferase activity is denoted in luciferase activity units (LUC) and standardized using GFP fluorescent (GFP). B, Wnt5a and IL-1β effect time course on COX-2 promoter activity. […] Luciferase activity (LUC) was measured in ARPE-19 cells in the presence of 50 ng/ml Wnt5a or 20 ng/ml IL1-β. […] Luciferase activity measured in cells incubated with 50 ng/ml Wnt5a in the presence or absence of 100 nM (+) and 200 nM (++) NPD1.

Question: Which “number of Wnt5a/FZD5 colocalized vesicles per field” value [1] does the source give for `CCC=CCC(O)C=CC=CC=CC(O)CC=CCC=CCCC(=O)O` (centres unmarked) [10R, 17R diHDHA] here?
Answer: decreased the amount of vesicles per field

Question: And the “number of Wnt5a/FZD5 colocalized vesicles per field” value ([1]; listed as NPD1 stereoisomer, of 10-R, 17R configuration)?
Answer: showed the same effect as NPD1

Question: What about the “UOS-dependent NFkB activation and apoptosis (FIG. 18B legend)” value [2] of the same molecule?
Answer: counteracted these effects

Question: `CC/C=C\C/C=C\C[C@H](O)\C=C/C=C/C=C/[C@H](O)C/C=C\CCC(=O)O` [Maresin-1] was tested. Which “UOS-dependent NFkB activation and apoptosis (FIG. 18B legend)” value [2] did it give?
Answer: counteracted these effects

Question: `CC/C=C\C[C@H](O)/C=C/C=C\C=C\C=C\[C@@H](O)[C@@H](O)C/C=C\CCC(=O)O` [RvD1, 7S,8R,17S-trihydroxy-DHA] was tested. Which “UOS-dependent NFkB activation and apoptosis (FIG. 18B legend)” value [2] did it give?
Answer: counteracted these effects

Question: With `O=C1NC(=NS(=O)(=O)c2cccc3ccccc23)S/C1=C\c1ccc(Br)cc1` [Pitstop2] as the molecule, how does the “cellular Wnt5a (cWnt5a) abundance” value ([3]; cells undergoing UOS+/−NPD1 and Pitstop2) read?
Answer: did not modify cWnt5a abundance

Question: What about the “secreted Wnt5a (sWnt5a) in medium” value ([3]; hpRPE cells under UOS, Pitstop2 added 2 hours before harvesting) of the same molecule?
Answer: reverted the effect of NPD1 on sWnt5a; also recorded: increase in secreted Wnt5a; also recorded: increase in sWnt5a

Question: And the “number of Wnt5a/FZD5 co-localized vesicles in the presence of Pitstop2” value ([1]; 25 μM Pitstop2, control and UOS treated cells, rWnt5a added)?
Answer: prevented the increased in Wnt5a/FZD5 co-localized vesicles; also recorded: inhibition produced by Box5 was reverted

Question: And the “NF-κB/p65 activation (luciferase)” value [4]?
Answer: decreases the activation of p65/NF-κB; also recorded: interferes with the activation of NF-κB/p65; also recorded: decreases the activation of p65/NFkB; also recorded: interferes with the activation of NFkB/p65

Question: `CC/C=C\C[C@H](O)[C@H](O)/C=C/C=C/C=C\C=C\[C@@H](O)C/C=C\CCC(=O)O` [RvD2, 7S,16R,17S-trihydroxy-DHA] was tested. Which “UOS-dependent NFkB activation and apoptosis (FIG. 18B legend)” value [2] did it give?
Answer: counteracted these effects

Question: “IL-1 β: cytokine that enhances COX-2 expression, used for comparison with Wnt5a” was tested. Which “COX-2 promoter activation (luciferase)” value [5] did it give?
Answer: growing staggered pattern of COX-2 promoter activation through at least 16 hours
